Laboratory results as given in paper PMC5290327, “SC83288 is a clinical development candidate for the treatment of severe malaria” (Nature Communications, 2017).

How the values were obtained:
Assay in all cases: KINOMEscan
Type in all cases: binding
Details in all cases: read-out: Remaining enzyme activity
MEK1 = biological target: T1, MEK1 (Homo sapiens, UniProt Q02750)
T1 construct: purchased Ambit (DiscoverX) KINOMEscan; Cerep
Outline: (§1)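 Measures displacement of tagged kinase from an immobilized active-site probe rather than enzymatic activity. SC81458 was added at 10 μM final from a 40x stock in 100% DMSO. Bound kinase was eluted and counted via qPCR.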

PRKCH = biological target: T2, PRKCH (Homo sapiens, UniProt P24723)
T2 construct: purchased Ambit (DiscoverX) KINOMEscan; Cerep
Outline: as §1

CDK11 = biological target: T3, CDK11 (Homo sapiens, UniProt Q9BWU1)
T3 construct: purchased Ambit (DiscoverX) KINOMEscan; Cerep
Outline: as §1

MARK4 = biological target: T4, MARK4 (Homo sapiens, UniProt Q96L34)
T4 construct: purchased Ambit (DiscoverX) KINOMEscan; Cerep
Outline: as §1

RET(V804M) = biological target: T5, RET(V804M) (Homo sapiens, UniProt P07949, V804M)
T5 construct: purchased Ambit (DiscoverX) KINOMEscan; Cerep
Outline: as §1

KIT(V559D) = biological target: T6, KIT(V559D) (Homo sapiens, UniProt P10721, V559D)
T6 construct: purchased Ambit (DiscoverX) KINOMEscan; Cerep
Outline: as §1

IRAK3 = biological target: T7, IRAK3 (Homo sapiens, UniProt Q9Y616)
T7 construct: purchased Ambit (DiscoverX) KINOMEscan; Cerep
Outline: as §1

CAMKK2 = biological target: T8, CAMKK2 (Homo sapiens, UniProt Q96RR4)
T8 construct: purchased Ambit (DiscoverX) KINOMEscan; Cerep
Outline: as §1

CAMK1d = biological target: T9, CAMK1d (Homo sapiens, UniProt Q8IU85)
T9 construct: purchased Ambit (DiscoverX) KINOMEscan; Cerep
Outline: as §1

BRSK1 = biological target: T10, BRSK1 (Homo sapiens, UniProt Q8TDC3)
T10 construct: purchased Ambit (DiscoverX) KINOMEscan; Cerep
Outline: as §1

MAK = biological target: T11, MAK (Homo sapiens, UniProt P20794)
T11 construct: purchased Ambit (DiscoverX) KINOMEscan; Cerep
Outline: as §1

PAK2 = biological target: T12, PAK2 (Homo sapiens, UniProt Q13177)
T12 construct: purchased Ambit (DiscoverX) KINOMEscan; Cerep
Outline: as §1

DRAK2 = biological target: T13, DRAK2 (Homo sapiens, UniProt O94768)
T13 construct: purchased Ambit (DiscoverX) KINOMEscan; Cerep
T13 sequence (O94768 whole entry): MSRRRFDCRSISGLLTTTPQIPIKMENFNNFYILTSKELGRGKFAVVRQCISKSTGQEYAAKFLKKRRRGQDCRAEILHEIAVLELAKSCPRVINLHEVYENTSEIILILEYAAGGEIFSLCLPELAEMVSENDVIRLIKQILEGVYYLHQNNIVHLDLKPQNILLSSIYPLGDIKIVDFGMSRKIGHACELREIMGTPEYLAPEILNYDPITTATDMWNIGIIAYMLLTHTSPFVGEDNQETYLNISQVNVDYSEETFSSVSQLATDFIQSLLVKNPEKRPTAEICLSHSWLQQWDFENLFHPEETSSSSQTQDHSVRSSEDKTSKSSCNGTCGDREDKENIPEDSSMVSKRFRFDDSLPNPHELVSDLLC
Outline: as §1

MLK2 = biological target: T14, MLK2 (Homo sapiens, UniProt Q02779)
T14 construct: purchased Ambit (DiscoverX) KINOMEscan; Cerep
Outline: as §1

EPHA3 = biological target: T15, EPHA3 (Homo sapiens, UniProt P29320)
T15 construct: purchased Ambit (DiscoverX) KINOMEscan; Cerep
Outline: as §1

CDKL5 = biological target: T16, CDKL5 (Homo sapiens, UniProt O76039)
T16 construct: purchased Ambit (DiscoverX) KINOMEscan; Cerep
Outline: as §1

CSNK1g3 = biological target: T17, CSNK1g3 (Homo sapiens, UniProt Q9Y6M4)
T17 construct: purchased Ambit (DiscoverX) KINOMEscan; Cerep
Outline: as §1

DMPK2 = biological target: T18, DMPK2 (Homo sapiens, UniProt Q6DT37)
T18 construct: purchased Ambit (DiscoverX) KINOMEscan; Cerep
Outline: as §1

AKT2 = biological target: T19, AKT2 (Homo sapiens, UniProt P31751)
T19 construct: purchased Ambit (DiscoverX) KINOMEscan; Cerep
Outline: as §1

EPHA5 = biological target: T20, EPHA5 (Homo sapiens, UniProt P54756)
T20 construct: purchased Ambit (DiscoverX) KINOMEscan; Cerep
Outline: as §1

DMPK = biological target: T21, DMPK (Homo sapiens, UniProt Q09013)
T21 construct: purchased Ambit (DiscoverX) KINOMEscan; Cerep
Outline: as §1

TYK2(JHdomain-catalytic) = biological target: T22, TYK2(JHdomain-catalytic) (Homo sapiens, UniProt P29597)
T22 construct: TYK2(JHdomain-catalytic); purchased Ambit (DiscoverX) KINOMEscan; Cerep
Outline: as §1

PIK3Cg = biological target: T23, PIK3Cg (Homo sapiens, UniProt P48736)
T23 construct: purchased Ambit (DiscoverX) KINOMEscan; Cerep
Outline: as §1

TESK1 = biological target: T24, TESK1 (Homo sapiens, UniProt Q15569)
T24 construct: purchased Ambit (DiscoverX) KINOMEscan; Cerep
T24 sequence (Q15569 whole entry): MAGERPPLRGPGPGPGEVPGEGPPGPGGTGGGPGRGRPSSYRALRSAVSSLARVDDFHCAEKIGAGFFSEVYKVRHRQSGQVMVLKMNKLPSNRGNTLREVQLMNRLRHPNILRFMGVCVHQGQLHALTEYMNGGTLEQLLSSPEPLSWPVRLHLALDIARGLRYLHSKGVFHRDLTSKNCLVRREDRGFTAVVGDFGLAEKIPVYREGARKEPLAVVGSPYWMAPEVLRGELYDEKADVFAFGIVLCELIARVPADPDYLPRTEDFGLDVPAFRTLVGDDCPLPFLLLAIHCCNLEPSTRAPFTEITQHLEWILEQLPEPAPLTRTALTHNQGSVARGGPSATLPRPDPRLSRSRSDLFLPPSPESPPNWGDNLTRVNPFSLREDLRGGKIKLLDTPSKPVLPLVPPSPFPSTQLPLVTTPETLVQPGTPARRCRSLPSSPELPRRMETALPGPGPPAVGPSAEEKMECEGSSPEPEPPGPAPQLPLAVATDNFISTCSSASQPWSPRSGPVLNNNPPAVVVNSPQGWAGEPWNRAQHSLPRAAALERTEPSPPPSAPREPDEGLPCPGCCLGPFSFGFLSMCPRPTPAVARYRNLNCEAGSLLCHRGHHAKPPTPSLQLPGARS
Outline: as §1

[1] = biological target: T25, RPS6KA1(Kin.Dom.2-C-term) (Homo sapiens, UniProt Q15418)
T25 construct: RPS6KA1(Kin.Dom.2-C-term); purchased Ambit (DiscoverX) KINOMEscan; Cerep
T25 sequence (Q15418 418-675 limits assumed): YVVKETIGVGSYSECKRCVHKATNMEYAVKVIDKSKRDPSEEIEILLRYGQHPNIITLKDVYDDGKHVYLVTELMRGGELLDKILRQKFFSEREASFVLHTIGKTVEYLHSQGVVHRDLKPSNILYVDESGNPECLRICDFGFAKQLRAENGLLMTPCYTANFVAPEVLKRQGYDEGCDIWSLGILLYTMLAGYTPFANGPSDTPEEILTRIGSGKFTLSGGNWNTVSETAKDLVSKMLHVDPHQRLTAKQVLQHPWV
Outline: as §1

MAST1 = biological target: T26, MAST1 (Homo sapiens, UniProt Q9Y2H9)
T26 construct: purchased Ambit (DiscoverX) KINOMEscan; Cerep
Outline: as §1

SRMS = biological target: T27, SRMS (Homo sapiens, UniProt Q9H3Y6)
T27 construct: purchased Ambit (DiscoverX) KINOMEscan; Cerep
Outline: as §1

MAP3K4 = biological target: T28, MAP3K4 (Homo sapiens, UniProt Q9Y6R4)
T28 construct: purchased Ambit (DiscoverX) KINOMEscan; Cerep
T28 sequence (Q9Y6R4 whole entry): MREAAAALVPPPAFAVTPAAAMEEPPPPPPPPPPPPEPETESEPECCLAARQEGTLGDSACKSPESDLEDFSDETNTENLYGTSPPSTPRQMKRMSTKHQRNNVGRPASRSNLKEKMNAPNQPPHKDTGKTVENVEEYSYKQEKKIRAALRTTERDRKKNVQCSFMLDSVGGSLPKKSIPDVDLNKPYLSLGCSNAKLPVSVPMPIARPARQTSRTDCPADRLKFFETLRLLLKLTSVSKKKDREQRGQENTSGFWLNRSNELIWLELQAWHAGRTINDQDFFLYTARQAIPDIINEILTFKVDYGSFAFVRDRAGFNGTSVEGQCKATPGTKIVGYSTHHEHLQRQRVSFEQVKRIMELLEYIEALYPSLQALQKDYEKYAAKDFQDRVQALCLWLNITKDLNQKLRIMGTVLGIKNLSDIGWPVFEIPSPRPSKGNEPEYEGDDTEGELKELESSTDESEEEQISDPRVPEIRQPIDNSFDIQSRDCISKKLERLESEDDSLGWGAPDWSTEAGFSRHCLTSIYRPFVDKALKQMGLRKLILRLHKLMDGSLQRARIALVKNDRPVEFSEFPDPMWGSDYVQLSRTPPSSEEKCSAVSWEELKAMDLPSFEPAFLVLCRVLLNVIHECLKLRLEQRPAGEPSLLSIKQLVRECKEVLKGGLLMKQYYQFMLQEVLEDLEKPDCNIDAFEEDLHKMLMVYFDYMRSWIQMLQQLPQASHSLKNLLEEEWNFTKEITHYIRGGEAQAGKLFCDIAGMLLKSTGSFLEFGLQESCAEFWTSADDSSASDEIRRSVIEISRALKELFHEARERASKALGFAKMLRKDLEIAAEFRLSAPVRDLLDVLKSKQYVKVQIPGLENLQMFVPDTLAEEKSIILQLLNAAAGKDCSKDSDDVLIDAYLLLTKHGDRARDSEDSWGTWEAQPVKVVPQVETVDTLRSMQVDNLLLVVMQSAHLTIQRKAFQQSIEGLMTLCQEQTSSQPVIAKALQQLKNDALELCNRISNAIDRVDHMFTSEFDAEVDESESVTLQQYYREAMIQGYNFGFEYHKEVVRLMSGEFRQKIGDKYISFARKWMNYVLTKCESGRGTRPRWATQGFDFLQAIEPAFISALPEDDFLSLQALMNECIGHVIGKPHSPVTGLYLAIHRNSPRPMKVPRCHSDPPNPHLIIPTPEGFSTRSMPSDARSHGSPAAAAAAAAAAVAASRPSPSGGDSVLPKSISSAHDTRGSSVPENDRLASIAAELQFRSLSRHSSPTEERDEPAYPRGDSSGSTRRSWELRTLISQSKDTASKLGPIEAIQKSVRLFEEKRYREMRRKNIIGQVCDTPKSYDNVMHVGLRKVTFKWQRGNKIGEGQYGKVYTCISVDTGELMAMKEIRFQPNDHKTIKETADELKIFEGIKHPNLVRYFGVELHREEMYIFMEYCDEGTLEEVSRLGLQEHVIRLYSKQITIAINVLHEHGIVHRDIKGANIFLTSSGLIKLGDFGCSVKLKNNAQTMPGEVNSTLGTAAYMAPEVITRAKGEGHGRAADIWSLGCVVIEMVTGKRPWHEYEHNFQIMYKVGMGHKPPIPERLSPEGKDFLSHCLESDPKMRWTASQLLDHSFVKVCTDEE
Outline: as §1

PIK3CA(E545K) = biological target: T29, PIK3CA(E545K) (Homo sapiens, UniProt P42336, E545K)
T29 construct: purchased Ambit (DiscoverX) KINOMEscan; Cerep
T29 sequence (P42336 whole entry E545K): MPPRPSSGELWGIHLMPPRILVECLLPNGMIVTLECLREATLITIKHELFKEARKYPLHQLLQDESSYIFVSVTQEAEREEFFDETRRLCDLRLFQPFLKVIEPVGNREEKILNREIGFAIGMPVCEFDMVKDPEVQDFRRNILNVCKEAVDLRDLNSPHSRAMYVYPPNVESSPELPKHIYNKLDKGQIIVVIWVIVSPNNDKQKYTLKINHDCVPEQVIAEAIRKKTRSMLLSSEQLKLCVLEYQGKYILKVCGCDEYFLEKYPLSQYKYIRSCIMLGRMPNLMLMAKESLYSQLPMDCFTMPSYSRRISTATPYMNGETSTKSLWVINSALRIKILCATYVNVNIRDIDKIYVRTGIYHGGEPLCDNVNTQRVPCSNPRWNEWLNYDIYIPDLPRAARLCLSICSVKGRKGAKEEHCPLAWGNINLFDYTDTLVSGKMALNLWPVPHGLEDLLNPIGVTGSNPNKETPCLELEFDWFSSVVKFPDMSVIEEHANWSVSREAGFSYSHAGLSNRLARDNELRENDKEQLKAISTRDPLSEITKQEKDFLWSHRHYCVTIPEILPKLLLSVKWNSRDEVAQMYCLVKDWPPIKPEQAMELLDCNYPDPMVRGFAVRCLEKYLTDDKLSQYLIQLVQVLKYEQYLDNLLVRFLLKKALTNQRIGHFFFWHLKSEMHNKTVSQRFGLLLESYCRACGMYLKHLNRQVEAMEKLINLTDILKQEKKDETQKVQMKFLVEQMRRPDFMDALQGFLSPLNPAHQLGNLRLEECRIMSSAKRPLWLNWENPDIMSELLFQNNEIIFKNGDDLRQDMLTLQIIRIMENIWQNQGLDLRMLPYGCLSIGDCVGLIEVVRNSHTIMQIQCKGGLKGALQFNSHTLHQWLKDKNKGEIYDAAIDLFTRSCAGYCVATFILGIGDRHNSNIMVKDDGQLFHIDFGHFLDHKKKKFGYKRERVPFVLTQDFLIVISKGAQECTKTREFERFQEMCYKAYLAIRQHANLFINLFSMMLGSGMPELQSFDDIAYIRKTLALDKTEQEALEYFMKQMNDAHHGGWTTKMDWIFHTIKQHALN
Outline: as §1

ABL1(M351T) = biological target: T30, ABL1(M351T) (Homo sapiens, UniProt P00519, M351T)
T30 construct: purchased Ambit (DiscoverX) KINOMEscan; Cerep
Outline: as §1

DRAK1 = biological target: T31, DRAK1 (Homo sapiens, UniProt Q9UEE5)
T31 construct: purchased Ambit (DiscoverX) KINOMEscan; Cerep
Outline: as §1

PRKG1 = biological target: T32, PRKG1 (Homo sapiens, UniProt Q13976)
T32 construct: purchased Ambit (DiscoverX) KINOMEscan; Cerep
T32 sequence (Q13976 whole entry): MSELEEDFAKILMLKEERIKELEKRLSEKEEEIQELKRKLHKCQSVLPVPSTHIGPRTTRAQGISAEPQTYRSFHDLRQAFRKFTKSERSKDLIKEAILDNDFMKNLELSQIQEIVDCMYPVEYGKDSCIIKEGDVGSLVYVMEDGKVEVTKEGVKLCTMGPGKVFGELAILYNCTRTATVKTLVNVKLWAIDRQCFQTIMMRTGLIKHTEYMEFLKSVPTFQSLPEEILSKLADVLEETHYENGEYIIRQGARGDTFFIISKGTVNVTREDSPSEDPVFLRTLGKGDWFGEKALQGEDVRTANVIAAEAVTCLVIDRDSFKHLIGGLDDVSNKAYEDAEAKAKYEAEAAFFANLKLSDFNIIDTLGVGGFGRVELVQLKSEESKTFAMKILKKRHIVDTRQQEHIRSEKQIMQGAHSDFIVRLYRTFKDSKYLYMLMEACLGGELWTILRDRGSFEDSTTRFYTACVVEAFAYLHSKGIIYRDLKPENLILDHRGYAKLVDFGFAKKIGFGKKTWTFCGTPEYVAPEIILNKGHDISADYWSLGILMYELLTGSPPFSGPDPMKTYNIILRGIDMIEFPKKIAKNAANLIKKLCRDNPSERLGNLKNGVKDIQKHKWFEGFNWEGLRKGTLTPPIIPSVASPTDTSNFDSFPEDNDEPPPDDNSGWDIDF
Outline: as §1

BMPR2 = biological target: T33, BMPR2 (Homo sapiens, UniProt Q13873)
T33 construct: purchased Ambit (DiscoverX) KINOMEscan; Cerep
Outline: as §1

T1 sequence (Q02750 whole entry): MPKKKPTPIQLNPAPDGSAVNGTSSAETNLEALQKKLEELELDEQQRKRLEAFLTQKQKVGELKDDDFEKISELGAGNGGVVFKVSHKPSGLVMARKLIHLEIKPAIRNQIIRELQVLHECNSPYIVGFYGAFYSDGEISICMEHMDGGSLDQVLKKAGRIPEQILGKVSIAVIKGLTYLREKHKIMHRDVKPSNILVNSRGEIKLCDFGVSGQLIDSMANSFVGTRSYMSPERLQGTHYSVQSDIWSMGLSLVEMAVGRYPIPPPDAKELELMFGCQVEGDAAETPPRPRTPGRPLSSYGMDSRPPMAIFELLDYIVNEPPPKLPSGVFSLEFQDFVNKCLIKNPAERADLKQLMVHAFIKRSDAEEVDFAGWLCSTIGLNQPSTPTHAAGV

`CCCCN1CCN(C(=N)c2cccc(NC(=O)Nc3ccc(S(=O)(=O)NCc4ccc(S(N)(=O)=O)cc4)cc3)c2)CC1` [SC81458, 4-(3-(3-((4-butylpiperazin-1-yl)(imino)methyl)phenyl)ureido)-N-(4-sulfamoylbenzyl) benzenesulfonamide] gave a remaining binding at 10 µM (MEK1) of 100%, a remaining binding at 10 µM (PRKCH) of 92% and a remaining binding at 10 µM (CDK11) of 91%. It also gave a remaining binding at 10 µM (MARK4) of 100%, a remaining binding at 10 µM (RET(V804M)) of 100% and a remaining binding at 10 µM (KIT(V559D)) of 100%. For the same molecule, the remaining binding at 10 µM (IRAK3) was 69%, the remaining binding at 10 µM (CAMKK2) was 100% and the remaining binding at 10 µM (CAMK1d) was 91%. It also gave a remaining binding at 10 µM (BRSK1) of 69%, a remaining binding at 10 µM (MAK) of 91% and a remaining binding at 10 µM (PAK2) of 100%. It also gave a remaining binding at 10 µM (DRAK2) of 88%, a remaining binding at 10 µM (MLK2) of 100% and a remaining binding at 10 µM (EPHA3) of 100%. The remaining binding at 10 µM (CDKL5) was 100%, the remaining binding at 10 µM (CSNK1g3) was 100% and the remaining binding at 10 µM (DMPK2) was 100%. It also gave a remaining binding at 10 µM (AKT2) of 84%, a remaining binding at 10 µM (EPHA5) of 100% and a remaining binding at 10 µM (DMPK) of 76%. For the same molecule, the remaining binding at 10 µM (TYK2(JHdomain-catalytic)) was 76%, the remaining binding at 10 µM (PIK3Cg) was 92% and the remaining binding at 10 µM (TESK1) was 100%. The remaining binding at 10 µM [1] was 100%, the remaining binding at 10 µM (MAST1) was 46% and the remaining binding at 10 µM (SRMS) was 79%. The remaining binding at 10 µM (MAP3K4) was 100%, the remaining binding at 10 µM (PIK3CA(E545K)) was 100% and the remaining binding at 10 µM (ABL1(M351T)) was 100%. For the same molecule, the remaining binding at 10 µM (DRAK1) was 98%, the remaining binding at 10 µM (PRKG1) was 86% and the remaining binding at 10 µM (BMPR2) was 100%.
